# Results as given in patent US11066369B2, “N-(pyridin-2-yl)pyridine-sulfonamide derivatives and their use in the treatment of disease” (Novartis AG, priority 2016, dated 2021).
# Counter-ions that a name gives are not always drawn.
# Target: T1, horseradish peroxidase (HRP) tagged delF508-CFTR (Homo sapiens, UniProt P13569, DEL508-508)
# T1 construct: expressed in transfected cells
# Assay: Measurement of delF508-CFTR-HRP surface expression in CFBE41o- cells;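 on DelF508-CFTR-HRP Amax %: percent efficacy relative to reference corrector lumacaftor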
# Assay type: cell-based
# Settings: delF508-CFTR-HRP surface expression, CFBE41o- cells; for Emax: read-out: DelF508-CFTR-HRP Amax %; for EC50: read-out: DelF508-CFTR-HRP EC50
# In short: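 CFBE41o- bronchial epithelial cells stably expressing delF508-CFTR with HRP in the fourth extracellular loop; expression induced 48h with 500 ng/mL doxycycline, then compounds added (top 10 μM, 10-point 3-fold series, ≤0.5% DMSO) for 24h at 37° C. Surface HRP measured by luminescence with cell-impermeant substrate; EC50 from logistic fit of triplicates, plate-normalized to lowest concentration; efficacy also relative to a reference corrector.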
# T1 sequence (P13569 with tags, fused parts or gaps DEL508-508): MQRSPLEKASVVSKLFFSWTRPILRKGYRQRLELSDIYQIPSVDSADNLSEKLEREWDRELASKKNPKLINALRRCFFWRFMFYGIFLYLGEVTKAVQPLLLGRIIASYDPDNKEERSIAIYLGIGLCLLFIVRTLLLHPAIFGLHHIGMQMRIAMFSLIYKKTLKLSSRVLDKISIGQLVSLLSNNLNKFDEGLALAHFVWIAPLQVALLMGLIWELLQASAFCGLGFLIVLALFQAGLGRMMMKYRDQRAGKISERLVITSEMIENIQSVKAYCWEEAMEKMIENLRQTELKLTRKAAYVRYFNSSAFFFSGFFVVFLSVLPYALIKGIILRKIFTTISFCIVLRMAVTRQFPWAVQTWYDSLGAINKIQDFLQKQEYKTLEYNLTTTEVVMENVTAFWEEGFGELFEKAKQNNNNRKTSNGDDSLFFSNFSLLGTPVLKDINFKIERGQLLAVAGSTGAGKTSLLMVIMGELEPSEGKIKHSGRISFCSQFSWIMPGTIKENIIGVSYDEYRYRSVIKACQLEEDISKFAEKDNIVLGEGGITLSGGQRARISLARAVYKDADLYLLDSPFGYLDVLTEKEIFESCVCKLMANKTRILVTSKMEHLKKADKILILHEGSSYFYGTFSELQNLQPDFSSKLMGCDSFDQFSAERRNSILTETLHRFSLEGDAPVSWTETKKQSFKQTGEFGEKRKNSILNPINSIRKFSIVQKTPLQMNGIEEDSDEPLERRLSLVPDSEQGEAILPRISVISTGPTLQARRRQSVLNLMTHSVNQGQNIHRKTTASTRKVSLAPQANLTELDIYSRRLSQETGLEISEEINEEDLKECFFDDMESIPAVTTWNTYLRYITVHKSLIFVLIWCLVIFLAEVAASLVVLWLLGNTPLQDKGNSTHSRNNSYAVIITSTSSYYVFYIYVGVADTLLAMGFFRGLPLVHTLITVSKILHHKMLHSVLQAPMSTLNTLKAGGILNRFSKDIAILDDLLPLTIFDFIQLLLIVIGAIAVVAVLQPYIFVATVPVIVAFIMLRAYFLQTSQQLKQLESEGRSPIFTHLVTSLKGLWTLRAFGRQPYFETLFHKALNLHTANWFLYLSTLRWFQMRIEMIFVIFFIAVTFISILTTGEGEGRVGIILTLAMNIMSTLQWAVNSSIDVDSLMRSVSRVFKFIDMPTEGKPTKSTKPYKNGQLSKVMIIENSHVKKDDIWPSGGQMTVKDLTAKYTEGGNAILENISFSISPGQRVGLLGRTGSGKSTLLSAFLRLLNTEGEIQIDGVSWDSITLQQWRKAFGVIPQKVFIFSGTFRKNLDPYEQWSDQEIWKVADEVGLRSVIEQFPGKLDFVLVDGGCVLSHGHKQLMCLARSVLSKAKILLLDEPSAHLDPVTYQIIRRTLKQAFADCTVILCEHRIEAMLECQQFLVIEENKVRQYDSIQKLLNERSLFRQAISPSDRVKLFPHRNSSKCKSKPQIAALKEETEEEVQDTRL
Structure (SMILES),Emax [%],EC50 [µM]
"O=S(=O)(Nc1ccc(Cl)c(-c2ccccc2C(F)(F)F)n1)c1cccc(N[C@@H]2COC[C@H]2O)n1 [Example 126, N-(5-chloro-6-(2-(trifluoromethyl)phenyl)pyridin-2-yl)-6-(((3R,4S)-4-hydroxytetrahydrofuran-3-yl)amino)pyridine-2-sulfonamide]",235,2.18
"Cc1cccc(C)c1-c1cc(C(F)(F)F)cc(NS(=O)(=O)c2cccc(N3CCN(C(=O)OC(C)(C)C)CC3)n2)n1 [Example 132, tert-butyl 4-(6-(N-(6-(2,6-dimethylphenyl)-4-(trifluoromethyl)pyridin-2-yl)sulfamoyl)pyridin-2-yl)piperazine-1-carboxylate]",894,0.803
"Cc1ccccc1-c1nc(NS(=O)(=O)c2cccc(N3CCN4CC(F)(F)C[C@H]4C3)n2)ccc1C(F)(F)F [Example 136, (S)-6-(7,7-difluorohexahydropyrrolo[1,2-a]pyrazin-2(1H)-yl)-N-(6-(o-tolyl)-5-(trifluoromethyl)pyridin-2-yl)pyridine-2-sulfonamide]",862,1.11
"Cc1ccccc1-c1nc(NS(=O)(=O)c2cccc(N3CCN4C[C@@H](F)C[C@H]4C3)n2)ccc1C(F)(F)F [Example 137, 6-((7S,8aS)-7-fluorohexahydropyrrolo[1,2-a]pyrazin-2(1H)-yl)-N-(6-(o-tolyl)-5-(trifluoromethyl)pyridin-2-yl)pyridine-2-sulfonamide]",854,1.35
"COc1cc(NS(=O)(=O)c2cccc(N3CCNCC3)n2)nc(-c2c(C)cccc2C)c1 [Example 139, N-(6-(2,6-dimethylphenyl)-4-methoxypyridin-2-yl)-6-(piperazin-1-yl)pyridine-2-sulfonamide]",53.2,4.97
"Cc1ccc(F)cc1-c1nc(NS(=O)(=O)c2cccc(N3CCN(C(C)(C)C)CC3)n2)ccc1C(F)(F)F [Example 143, 6-(4-(tert-butyl)piperazin-1-yl)-N-(6-(5-fluoro-2-methylphenyl)-5-(trifluoromethyl)pyridin-2-yl)pyridine-2-sulfonamide]",888,2.99
"Cc1c(F)cccc1-c1nc(NS(=O)(=O)c2cccc(N3CCn4cnnc4C3)n2)ccc1Cl [Example 146, N-(5-chloro-6-(3-fluoro-2-methylphenyl)pyridin-2-yl)-6-(5,6-dihydro-[1,2,4]triazolo[4,3-a]pyrazin-7(8H)-yl)pyridine-2-sulfonamide]",59.1,4.28
"O=S(=O)(Nc1ccc(C(F)(F)F)c(-c2ccc(F)cc2Cl)n1)c1cccc(N2CCNCC2)n1 [Example 153, N-(6-(2-Chloro-4-Fluorophenyl)-5-(Trifluoromethyl)Pyridin-2-yl)-6-(Piperazin-1-yl)Pyridine-2-Sulfonamide Hydrochloride]",159,3.8
"O=S(=O)(Nc1ccc(C(F)(F)F)c(-c2cccc(F)c2Cl)n1)c1cccc(N2CCNCC2)n1 [Example 155, N-(6-(2-chloro-3-fluorophenyl)-5-(trifluoromethyl)pyridin-2-yl)-6-(piperazin-1-yl)pyridine-2-sulfonamide hydrochloride]",196,4.4
"O=S(=O)(Nc1ccc(Cl)c(-c2ccccc2Cl)n1)c1cccc(N2CCNCC2)n1 [Example 156, N-(5-chloro-6-(2-chlorophenyl)pyridin-2-yl)-6-(piperazin-1-yl)pyridine-2-sulfonamide]",178,4.03
"O=S(=O)(Nc1ccc(Cl)c(-c2ccc(F)cc2Cl)n1)c1cccc(N2CCNCC2)n1 [Example 157, N-(5-chloro-6-(2-chloro-4-fluorophenyl)pyridin-2-yl)-6-(piperazin-1-yl)pyridine-2-sulfonamide]",180,4.28
"O=S(=O)(Nc1ccc(Cl)c(-c2cccc(F)c2Cl)n1)c1cccc(N2CCNCC2)n1 [Example 159, N-(5-chloro-6-(2-chloro-3-fluorophenyl)pyridin-2-yl)-6-(piperazin-1-yl)pyridine-2-sulfonamide hydrochloride]",130,4.42
"Cc1ccc(C(F)(F)F)cc1-c1nc(NS(=O)(=O)c2cccc(N3CCN(C(=O)OC(C)(C)C)CC3)n2)ccc1Cl [Example 168, tert-butyl 4-(6-(N-(5-chloro-6-(2-methyl-5-(trifluoromethyl)phenyl)pyridin-2-yl)sulfamoyl)pyridin-2-yl)piperazine-1-carboxylate]",271,0.626
"Cc1cccc(C)c1-c1nc(NS(=O)(=O)c2cccc(N3CCN(C(=O)OC(C)(C)C)CC3=O)n2)ccc1Cl [Example 188, tert-butyl 4-(6-(N-(5-chloro-6-(2,6-dimethylphenyl)pyridin-2-yl)sulfamoyl)pyridin-2-yl)-3-oxopiperazine-1-carboxylate]",658,0.971
"Cc1c(F)cccc1-c1nc(NS(=O)(=O)c2cccc(N3CCNCC3)n2)ccc1Cl [Example 194, N-[5-chloro-6-(3-fluoro-2-methylphenyl)pyridin-2-yl]-6-(piperazin-1-yl)pyridine-2-sulfonamide hydrochloride]",177,3.84
"Cc1cccc(C)c1-c1nc(NS(=O)(=O)c2cccc(N3CCn4ccnc4C3)n2)ccc1Cl [Example 198, N-(5-chloro-6-(2,6-dimethylphenyl)pyridin-2-yl)-6-(5,6-dihydroimidazo[1,2-a]pyrazin-7(8H)-yl)pyridine-2-sulfonamide]",692,1.95
"Cc1ccc(F)cc1-c1nc(NS(=O)(=O)c2cccc(N3C[C@@H]4CC[C@H]3CN4)n2)ccc1C(F)(F)F [Example 200, 6-((1S,4S)-2,5-diazabicyclo[2.2.2]octan-2-yl)-N-(6-(5-fluoro-2-methylphenyl)-5-(trifluoromethyl)pyridin-2-yl)pyridine-2-sulfonamide Hydrochloride]",553,3.17
"Cc1ccc(F)cc1-c1nc(NS(=O)(=O)c2cccc(N3CCN4CC[C@H]3C4)n2)ccc1C(F)(F)F [Example 202, 6-((5S)-1,4-diazabicyclo[3.2.1]octan-4-yl)-N-(6-(5-fluoro-2-methylphenyl)-5-(trifluoromethyl)pyridin-2-yl)pyridine-2-sulfonamide]",159,3.93
"COc1cc(NS(=O)(=O)c2cccc(N3CC(C)(O)C3)n2)nc(-c2c(C)cccc2C)c1 [Example 206, N-(6-(2,6-dimethylphenyl)-4-methoxypyridin-2-yl)-6-(3-hydroxy-3-methylazetidin-1-yl)pyridine-2-sulfonamide]",95.9,3.7
"COC(=O)C1(C)CCN(c2cccc(S(=O)(=O)Nc3ccc(C(F)(F)F)c(-c4ccccc4C4CC4)n3)n2)CC1 [Example 236, methyl 1-(6-(N-(6-(2-cyclopropylphenyl)-5-(trifluoromethyl)pyridin-2-yl)sulfamoyl)pyridin-2-yl)-4-methylpiperidine-4-carboxylate]",602,0.573
"CC1(C(=O)O)CCN(c2cccc(S(=O)(=O)Nc3ccc(Cl)c(-c4ccccc4Cl)n3)n2)CC1 [Example 239, 1-(6-(N-(5-chloro-6-(2-chlorophenyl)pyridin-2-yl)sulfamoyl)pyridin-2-yl)-4-methylpiperidine-4-carboxylic Acid]",280,4.51
"CC1(C(=O)O)CCN(c2cccc(S(=O)(=O)Nc3ccc(C(F)(F)F)c(-c4ccc(F)cc4Cl)n3)n2)CC1 [Example 240, 1-(6-(N-(6-(2-chloro-4-fluorophenyl)-5-(trifluoromethyl)pyridin-2-yl)sulfamoyl)pyridin-2-yl)-4-methylpiperidine-4-carboxylic Acid]",385,3.42
"CC1(C(=O)O)CCN(c2cccc(S(=O)(=O)Nc3ccc(Cl)c(-c4ccc(F)cc4Cl)n3)n2)CC1 [Example 243, 1-(6-(N-(5-chloro-6-(2-chloro-4-fluorophenyl)pyridin-2-yl)sulfamoyl)pyridin-2-yl)-4-methylpiperidine-4-carboxylic Acid]",152,2.6
"COc1ccc(Cl)c(-c2nc(NS(=O)(=O)c3cccc(N4CCC(C)(C(=O)O)CC4)n3)ccc2Cl)c1 [Example 244, 1-(6-(N-(5-chloro-6-(2-chloro-5-methoxyphenyl)pyridin-2-yl)sulfamoyl)pyridin-2-yl)-4-methylpiperidine-4-carboxylic Acid]",222,3.65
"CCOC(=O)C1(C)CCN(c2cccc(S(=O)(=O)Nc3ccc(Cl)c(-c4cccc(F)c4C)n3)n2)CC1 [Example 252, ethyl 1-(6-(N-(5-chloro-6-(3-fluoro-2-methylphenyl)pyridin-2-yl)sulfamoyl)pyridin-2-yl)-4-methylpiperidine-4-carboxylate]",602,2.47
"CCOC(=O)C1(C)CCN(c2cccc(S(=O)(=O)Nc3ccc(C(F)(F)F)c(-c4cccc(F)c4C)n3)n2)CC1 [Example 258, ethyl 1-(6-{[6-(3-fluoro-2-methylphenyl)-5-(trifluoromethyl)pyridin-2-yl]sulfamoyl}pyridin-2-yl)-4-methylpiperidine-4-carboxylate]",828,1.39
"COC(=O)C1(O)CCN(c2cccc(S(=O)(=O)Nc3ccc(Cl)c(-c4c(C)cccc4C)n3)n2)CC1 [Example 260, methyl 1-(6-{[5-chloro-6-(2,6-dimethylphenyl)pyridin-2-yl]sulfamoyl}pyridin-2-yl)-4-hydroxypiperidine-4-carboxylate]",59.8,3.8
"Cc1cccc(C)c1-c1nc(NS(=O)(=O)c2cccc(N3CCC(O)(C(=O)O)CC3)n2)ccc1Cl [Example 261, 1-(6-{[5-chloro-6-(2,6-dimethylphenyl)pyridin-2-yl]sulfamoyl}pyridin-2-yl)-4-hydroxypiperidine-4-carboxylic Acid]",22.8,4.14
